Data: publication PMC6429436 (Bioconjugate Chemistry, 2019)
pIC50, pKd: −log10 of the molar value. Values joined by “and” are separate entries in the source; they are usually repeats but may differ in a detail not shown here. Equal values may be shown once.

Columns and labels:
[1] = target: CTB; conditions: LeY-CTB binding, secondary binding site; cited from earlier work
[2] = target: cholera toxin B-subunit (Vibrio cholerae serotype O1, UniProt P01556); test: biochemical; assay type: binding
[3] = test system: CT-induced swelling of intestinal organoids; test: cells; assay type: cell-based, human

cholera toxin B-subunit, sequence (P01556 22-124 limits assumed): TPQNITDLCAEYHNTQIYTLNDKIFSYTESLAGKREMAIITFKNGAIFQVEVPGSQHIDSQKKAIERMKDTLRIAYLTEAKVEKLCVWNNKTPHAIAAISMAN

In the case of CC(=O)N[C@@H]1[C@@H](O[C@@H]2O[C@@H](C)[C@@H](O)[C@@H](O)[C@@H]2O)[C@H](O[C@@H]2O[C@H](CO)[C@H](O)[C@H](O)[C@H]2O[C@@H]2O[C@@H](C)[C@@H](O)[C@@H](O)[C@@H]2O)[C@@H](CO)O[C@H]1O [LeY], the pKd [1] is given as 2.85.

With O=C[C@H](O)[C@@H](O)[C@@H](O)[C@H](O)CO [galactose] the rel. pot. [2] was 1, the “rel. pot. per sugar” value [2] was 1 and the pIC50 ([2]; IC50 (μg/mL)) was 0.95. The rel. pot. [3] was 1, the “rel. pot. per sugar” value [3] was 1 and the IC50 ([3]; Homo sapiens) was 100 mM and 18000 µg/mL.
